Assay results from patent US20210379040A1, “COMBINATION TREATMENT OF LIVER DISORDERS” (Terns Pharmaceuticals, Inc., priority 2020, published 2021).
Where two headings read alike, the source gives them in different places. Values belong to the molecule of their own block, whether it stands above or below them.

Tests used:
[1] = system: mouse hepatocytes; experiment: In vitro metabolic stability in cryopreserved hepatocytes (mouse); assay type: in vitro ADME
Description: (§1) In vitro half-life values were determined and scaled to predict hepatic clearance (CLpred) and hepatic extraction using the well-stirred liver model with no correction for plasma protein as described in Obach et al., The Prediction of Human Pharmacokinetic Parameters from Preclinical and In Vitro Metabolism Data, J. of Pharmacology and Experimental Therapeutics, vol. 283, no. 1, pp. 46-58 (1997).

[2] = PK/PD profile, 1 mg/kg oral for 7 consecutive days; assay type: in vivo; details: cynomolgus monkeys; for Cmax / Tmax / AUC(0-t): cynomolgus monkey, plasma, po, 1 mg/kg, oral 1 mg/kg daily; for AUC(0-t): read-out: AUC0-24
[3] = system: dog hepatocytes; experiment: In vitro metabolic stability in cryopreserved hepatocytes (dog); assay type: in vitro ADME; details: Beagle Dog
Description: as §1

[4] = Clinical study, Second Study (7 days daily oral dosing); details: for AUC: human, in vivo, po
[5] = Tissue distribution of radiolabeled (14C) compound, oral 5 mg/kg; assay type: in vivo; details: Long-Evans rats, oral 5 mg/kg (100 μCi/kg), up to 168 hours
Description: Plasma, liver, small intestine, cecum, kidney, lung, heart and skin tissue samples were collected up to 168 hours, and the amount of radioactive material at various time points was measured.

[6] = Clinical study, First Study (14 days, healthy volunteers); assay type: in vivo; details: healthy human volunteers, oral daily 5, 75, 200 or 400 mg for 14 days
[7] = Pharmacokinetics assay, dog; assay type: in vivo, beagle dogs; details: plasma, iv, Beagle Dog, intravenously 1 mg/kg
Description: (§2) Results are shown in FIG. 1A (IV administration) and FIG. 1B (oral administration), and in Table 2. […] Smaller Vdss in monkeys is correlated with higher plasma protein binding.

[8] = Pharmacokinetics assay, monkey; assay type: in vivo, cynomolgus monkeys; details: plasma, iv, Cynomolgus Monkey, intravenously 0.3 mg/kg
Description: as §2

[9] = molecular target: T1, plasma SSAO (Homo sapiens, UniProt Q16853); experiment: Multiple once daily dose study: plasma amine oxidase activity and methylamine; assay type: in vivo
T1 construct: from tissue; host or cells: plasma of healthy participants
T1 sequence (Q16853 27-763 limits assumed): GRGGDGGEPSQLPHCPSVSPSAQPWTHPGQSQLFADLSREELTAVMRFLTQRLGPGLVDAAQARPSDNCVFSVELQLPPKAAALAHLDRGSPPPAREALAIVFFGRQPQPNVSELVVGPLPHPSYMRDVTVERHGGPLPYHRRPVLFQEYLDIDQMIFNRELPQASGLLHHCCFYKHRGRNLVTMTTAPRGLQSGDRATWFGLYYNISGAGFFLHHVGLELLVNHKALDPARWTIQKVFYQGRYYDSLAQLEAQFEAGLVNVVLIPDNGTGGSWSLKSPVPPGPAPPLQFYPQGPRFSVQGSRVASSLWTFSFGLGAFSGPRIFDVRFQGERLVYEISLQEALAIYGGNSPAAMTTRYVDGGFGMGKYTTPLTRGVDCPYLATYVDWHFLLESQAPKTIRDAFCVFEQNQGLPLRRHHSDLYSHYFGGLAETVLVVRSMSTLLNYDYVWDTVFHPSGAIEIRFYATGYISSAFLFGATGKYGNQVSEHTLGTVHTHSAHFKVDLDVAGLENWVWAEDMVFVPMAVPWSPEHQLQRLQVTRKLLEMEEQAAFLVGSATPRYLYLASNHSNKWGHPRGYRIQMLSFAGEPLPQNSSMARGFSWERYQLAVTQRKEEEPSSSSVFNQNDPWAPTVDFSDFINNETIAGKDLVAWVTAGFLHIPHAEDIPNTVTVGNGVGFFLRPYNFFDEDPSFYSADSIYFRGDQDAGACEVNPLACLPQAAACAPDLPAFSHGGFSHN
Description: 3 groups of 8 healthy participants were randomized to receive multiple once daily (QD) doses of Compound 2 or matching placebo in a 3:1 ratio for 7 days (1 mg and 4 mg) or 14 days (10 mg). Plasma levels of Compound 2 and PD biomarkers (plasma amine oxidase activity and methylamine levels) were determined at pre-dose and various timepoints post-dose. Safety was assessed for up to 14 days after last dose.

[10] = molecular target: T2, MAO-A (Homo sapiens, UniProt P21397); experiment: Biochemical activity, MAO-A
T2 sequence (P21397 1-527): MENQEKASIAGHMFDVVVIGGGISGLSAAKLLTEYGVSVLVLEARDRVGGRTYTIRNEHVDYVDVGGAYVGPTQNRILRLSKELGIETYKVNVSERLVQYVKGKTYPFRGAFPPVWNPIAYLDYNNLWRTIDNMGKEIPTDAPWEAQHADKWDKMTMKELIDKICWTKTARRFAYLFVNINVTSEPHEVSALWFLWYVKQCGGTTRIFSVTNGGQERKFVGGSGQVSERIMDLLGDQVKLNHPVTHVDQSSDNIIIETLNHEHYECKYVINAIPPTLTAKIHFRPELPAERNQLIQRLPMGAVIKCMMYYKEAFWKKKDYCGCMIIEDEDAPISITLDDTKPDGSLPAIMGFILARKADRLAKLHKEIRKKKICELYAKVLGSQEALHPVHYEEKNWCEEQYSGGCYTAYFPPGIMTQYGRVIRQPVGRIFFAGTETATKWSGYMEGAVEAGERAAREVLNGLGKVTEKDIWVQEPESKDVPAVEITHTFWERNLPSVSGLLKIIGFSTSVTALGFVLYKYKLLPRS

[11] = read-out: IV Terminal t1/2 (converted)

Structure (SMILES): Cn1cc(C(=O)O)c2ccc(N3CCC(OCc4c(-c5c(Cl)cccc5Cl)noc4C4CC4)CC3)cc21 [Compound 1]
Hepatic Extraction [1]: 80.7 ± 1.02%
In vitro Metabolic CLpred ([1]; well-stirred liver model): 72.7 ± 1 mL/min/kg
Cmax ([2]; Day 1): 257 ± 124 ng/mL
Tmax ([2]; Day 1): 1.83 ± 1.17 h
AUC(0-t) ([2]; Day 1): 1000 ± 419 ng·h/mL
Cmax ([2]; Day 7): 221 ± 121 ng/mL
Tmax ([2]; Day 7): 1.25 ± 0.61 h
AUC(0-t) ([2]; Day 7): 858 ± 425 ng·h/mL
suppression of the pharmacodynamics biomarker 7AC4 ([2]; 1 mg/kg oral, 7 consecutive days): sustained suppression
Hepatic Extraction [3]: 71.0 ± 2.49%
In vitro Metabolic CLpred ([3]; well-stirred liver model): 22 ± 0.83 mL/min/kg
Pruritus ([4]; Compound 1 25 mg oral daily for 7 days): No
Pruritus ([4]; Compound 1 75 mg oral daily for 7 days): No
Pruritus ([4]; Compound 1 150 mg oral daily for 7 days): No
AUC ([4]; 25 mg): 645 ng·h/mL
AUC ([4]; 75 mg): 1480 ng·h/mL
AUC ([4]; 150 mg): 2160 ng·h/mL
Pruritus ([4]; subjects taking the highest doses): no pruritus was observed
tissues with the most radioactive material [5]: Liver, small intestine, and cecum had the most radioactive material
incidences of pruritus [6]: no incidences of pruritus were observed
half-life [7, 11]: 5.67 h
Vd ([7]; read-out: Vdss): 1.92 L/kg
clearance [8]: 5 mL/min/kg
half-life [8, 11]: 1.32 h
Vd ([8]; read-out: Vdss): 0.6 L/kg

duration of continued suppression of plasma SSAO activity after last dose ([9]; 10 mg cohort (QD, 14 days)): up to 2 weeks
inhibition of plasma SSAO activity ([9]; Day 1, all dose cohorts): Near complete inhibition
IC50 [10]: > 50 µM
Structure (SMILES): COC1CCN(c2ncc(OC/C(=C/F)CN)cn2)CC1 [Compound 2]
Plasma methylamine levels ([9]; QD 1, 4, 10 mg): increased in a greater than dose proportional manner
